Test results from patent US8173682B2, “Substituted pyridones as inhibitors of poly(ADP-ribose) polymerase (PARP)” (Aventis Pharmaceuticals Inc., priority 2004, dated 2012).
Where a name gives a salt, the structure may show the parent alone.

Tests used:
[1] = biological target: recombinantly expressed human PARP-1 enzyme (Homo sapiens, UniProt P09874); experiment: PARP enzyme assay, Method B (tritium-labeled NAD incorporation); type: biochemical; details: Method B; 200 μM NAD, room temperature 1 hour, pH 8.0; read-out: IC50 (μM)/Method B
Procedure: Method B: PARP Enzyme Assay:
The IC50 is determined in this method by incubating the substances to be tested with the DNA-activated, recombinantly expressed and purified PARP-1 enzyme. Specifically, various concentrations of the test substance are incubated in 50 μL of reaction solution, which contains 50 mM Tris, 5 mM MgCl2, 1 mM DTT, 200 μM NAD, 0.1 m Ci/mL tritium-labeled NAD, 0.1 mg/mL DNA, 0.1 mg/mL histones, 2 μg/mL recombinantly expressed human PARP-1 enzyme, pH=8.0, at room temperature for 1 hour. The reaction is stopped by adding 150 μL of 20% trichloroacetic acid, and the radiolabeled protein constituents are precipitated. After incubation on ice for 10 minutes, the labeled, insoluble constituents are separated off through a glass fiber filter and, after washing with 20% trichloroacetic acid three times, the radioactivity incorporated by the PARP-1 enzyme is measured by radioluminescence. Consideration of the incorporation rates determined in this way as a function of the concentration of the test substance results in IC50 as the concentration of the test substance which reduces the incorporation rate to half the maximum value attainable (incubation without inhibitor).
The IC50 (fifty percent inhibitory concentration of the test substance in a solution—expressed at micromolar (μM) concentration) measured in accordance with these procedures for the compounds of this invention are summarized in Table 1.

[2] = biological target: T1, recombinant human PARP (PARP1) (Homo sapiens, UniProt P09874); experiment: PARP enzyme assay, Method A (radioactivity or 'ELISA' enzyme assay with partially purified enzyme); type: biochemical; details: recombinant human PARP preparation, radioactive or ELISA enzyme assay
T1 construct: Full length human PARP (PARP1) is assembled from PCR fragments; His6 tag with TEV site, from the pFastBac-HTb vector (own knowledge of the vector); made in house; host or cells: insect cells, baculovirus (Bac-to-Bac, Gibco-BRL)
Summary of the method: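 Partially purified recombinant full-length His-tagged human PARP1, baculovirus-expressed. Radioactive format: 100 μg/mL sonicated DNA, 100 μg/mL histones, 100 mM Tris pH 8.0, 10 mM MgCl2, 200 μM labeled NAD, 10 min 37 °C or 60 min RT, TCA-precipitated counts. ELISA format: 250 μM NAD plus biotin-NAD on histone plates, TMB A450.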

T1 sequence (P09874 whole entry, the tested form may be a part): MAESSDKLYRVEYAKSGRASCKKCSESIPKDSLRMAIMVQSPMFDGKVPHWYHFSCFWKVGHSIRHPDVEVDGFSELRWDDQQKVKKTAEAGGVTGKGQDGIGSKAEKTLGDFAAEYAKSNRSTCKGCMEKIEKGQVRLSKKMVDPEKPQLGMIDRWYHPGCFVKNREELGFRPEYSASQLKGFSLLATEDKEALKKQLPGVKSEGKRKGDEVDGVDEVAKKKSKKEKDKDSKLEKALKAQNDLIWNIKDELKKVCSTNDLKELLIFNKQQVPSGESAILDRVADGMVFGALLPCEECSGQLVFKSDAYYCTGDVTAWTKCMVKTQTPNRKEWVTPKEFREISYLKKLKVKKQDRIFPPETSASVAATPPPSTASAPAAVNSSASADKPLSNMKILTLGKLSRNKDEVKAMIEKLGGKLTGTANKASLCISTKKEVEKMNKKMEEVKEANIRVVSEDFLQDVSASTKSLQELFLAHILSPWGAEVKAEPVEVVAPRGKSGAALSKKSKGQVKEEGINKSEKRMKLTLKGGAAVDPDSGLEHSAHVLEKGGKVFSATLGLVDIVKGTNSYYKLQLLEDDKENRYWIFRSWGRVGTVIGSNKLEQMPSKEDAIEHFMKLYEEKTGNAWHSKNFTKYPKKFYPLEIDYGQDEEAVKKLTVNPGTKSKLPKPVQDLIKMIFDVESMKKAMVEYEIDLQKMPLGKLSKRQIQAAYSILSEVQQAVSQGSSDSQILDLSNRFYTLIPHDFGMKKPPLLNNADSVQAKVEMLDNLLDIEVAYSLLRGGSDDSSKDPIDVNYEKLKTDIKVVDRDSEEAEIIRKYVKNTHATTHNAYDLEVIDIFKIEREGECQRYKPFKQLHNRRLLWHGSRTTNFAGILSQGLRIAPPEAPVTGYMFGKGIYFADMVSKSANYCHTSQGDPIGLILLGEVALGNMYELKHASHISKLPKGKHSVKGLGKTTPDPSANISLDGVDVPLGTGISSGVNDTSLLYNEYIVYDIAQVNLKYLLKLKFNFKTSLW
recombinantly expressed human PARP-1 enzyme, sequence (P09874 whole entry): as the sequence (P09874 whole entry, the tested form may be a part) above

| Compound | IC50 [1] | IC50 [2] |
| --- | --- | --- |
| CCc1cc(-c2ccc(C(=O)N3CCCC3)cn2)c(C)[nH]c1=O [Example 211, 5′-Ethyl-2′-methyl-5-(pyrrolidine-1-carbonyl)-1′H-[2,3′]bipyridinyl-6′-one] | 8.6 µM |  |
| CCc1cc(-c2cccc(CN3CCC(N4CCCC4)CC3)n2)c(C)[nH]c1=O [Example 182K, 5′-Ethyl-2′-methyl-6-(4-pyrrolidin-1-yl-piperidin-1-ylmethyl)-1′H-[2,3′]bipyridinyl-6′-one] | 4.23 µM |  |
| CCc1cc(-c2cncc(C(=O)NCc3cccc(OC)c3)c2)c(C)[nH]c1=O [Example 263, 5′-Ethyl-2′-methyl-6′-oxo-1′,6′-dihydro-[3,3′]bipyridinyl-5-carboxylic acid 3-methoxy-benzylamide] | 2.67 µM |  |
| CCc1cc(-c2cccc(NS(=O)(=O)c3ccc(NC(C)=O)cc3)n2)c(C)[nH]c1=O [Example 278, N-[4-(5′-Ethyl-2′-methyl-6′-oxo-1′,6′-dihydro-[2,3′]bipyridinyl-6-ylsulfamoyl)-phenyl]-acetamide] | 7.9 µM |  |
| CCc1cc(-c2cncc(C(=O)N3CC(O)CC3C(=O)OC)c2)c(C)[nH]c1=O (stereo not shown) [Example 231, 1-(5′-Ethyl-2′-methyl-6′-oxo-1′,6′-dihydro-[3,3′]bipyridinyl-5-carbonyl)-4-hydroxy-pyrrolidine-2-carboxylic acid methyl ester] | 14.8 µM |  |
| CCCCNC(=O)c1ccc(-c2cc(CC)c(=O)[nH]c2C)nc1 [Example 209, 5′-Ethyl-2′-methyl-6′-oxo-1′,6′-dihydro-[2,3′]bipyridinyl-5-carboxylic acid butylamide] | 13 µM |  |
| CCc1cc(-c2cncc(C(=O)NCCn3c([N+](=O)[O-])cnc3C)c2)c(C)[nH]c1=O [Example 249, 5′-Ethyl-2′-methyl-6′-oxo-1′,6′-dihydro-[3,3′]bipyridinyl-5-carboxylic acid [2-(2-methyl-5-nitro-imidazol-1-yl)-ethyl]-amide] | 5 µM |  |
| CCc1cc(-c2coc(CN3CCCC3)c2)c(C)[nH]c1=O [Example 181A] | 2.17 µM |  |
| CCc1cc(-c2ccc(CNCCO)s2)c(C)[nH]c1=O [Example 128, 3-Ethyl-5-{5-[(2-hydroxy-ethylamino)-methyl]thiophen-2-yl}-6-methyl-1H-pyridin-2-one hydrochloride] |  | 0.46 µM |
| CCc1cc(-c2ccc(S(=O)(=O)N3CCC(N4CCCCC4)CC3)o2)c(C)[nH]c1=O [Example 51, 3-Ethyl-6-methyl-5-[5-(4-piperidin-1-yl)piperidine-1-sulfonylfuran-2-yl]-1H-pyridin-2-one hydrochloride] |  | 0.22 µM |
| CCc1cc(-c2ccc(S(=O)(=O)N3CCN(CCc4ccccn4)CC3)s2)c(C)[nH]c1=O [Example 60, 3-Ethyl-6-methyl-5-{5-[4-(2-pyridin-2-yl)ethylpiperazine-1-sulfonyl]thiophen-2-yl}-1H-pyridin-2-one dihydrochloride] |  | 1.7 µM |
| CCc1cc(-c2ccc(S(=O)(=O)N(C)CC(O)c3ccccc3)s2)c(C)[nH]c1=O (stereo not shown) [Example 37, 5-(5-Ethyl-2-methyl-6-oxo-1,6-dihydropyridin-3-yl)thiophene-2-sulfonic acid (2-hydroxy-2-phenylethyl)methylamide] |  | 2 µM |
| CCc1cc(-c2ccc(S(=O)(=O)NC3CCN(Cc4ccc(Cl)cc4)CC3)s2)c(C)[nH]c1=O [Example 76, 5-[5-Ethyl-2-methyl-6-oxo-1,6-dihydropyridin-3-yl]-thiophene-2-sulfonic acid 1-(4-chlorobenzyl)piperidin-4-yl]amide hydrochloride] |  | 0.23 µM |

Further compounds by falling IC50 [1], results first:

| IC50 [1] | IC50 [2] | Compound |
| --- | --- | --- |
| 1.62 µM |  | CCc1cc(-c2coc(CNCc3ccccn3)c2)c(C)[nH]c1=O [Example 182F, 3-Ethyl-6-methyl-5-(5-{[(pyridin-2-ylmethyl)-amino]-methyl}-furan-3-yl)-1H-pyridin-2-one] |
| 1.5 µM |  | CCc1cc(-c2cc(C(=O)NC3CCCC3)ccn2)c(C)[nH]c1=O [Example 216, 5′-Ethyl-2′-methyl-6′-oxo-1′,6′-dihydro-[2,3′]bipyridinyl-4-carboxylic acid cyclopentylamide] |
| 1.35 µM |  | CCc1cc(-c2ccc(C(=O)N3CCN(c4ccccc4)CC3)o2)c(C)[nH]c1=O [Example 201, 3-Ethyl-6-methyl-5-[5-(4-phenyl-piperazine-1-carbonyl)-furan-2-yl]-1H-pyridin-2-one] |
| 1.34 µM |  | CCc1cc(-c2cncc(C(=O)NCCc3ccc(S(N)(=O)=O)cc3)c2)c(C)[nH]c1=O [Example 237, 5′-Ethyl-2′-methyl-6′-oxo-1′,6′-dihydro-[3,3′]bipyridinyl-5-carboxylic acid [2-(4-sulfamoyl-phenyl)-ethyl]-amide] |
| 1.25 µM |  | CCc1cc(-c2cncc(C(=O)NCCN3CCOCC3)c2)c(C)[nH]c1=O [Example 241, 5′-Ethyl-2′-methyl-6′-oxo-1′,6′-dihydro-[3,3′]bipyridinyl-5-carboxylic acid (2-morpholin-4-yl-ethyl)-amide] |
| 1.22 µM |  | CCc1cc(-c2ccc(S(=O)(=O)NCc3ccccc3)s2)c(C)[nH]c1=O [Example 122A, 5-(5-Ethyl-2-methyl-6-oxo-1,6-dihydro-pyridin-3-yl)-thiophene-2-sulfonic acid benzylamide] |
| 1.18 µM |  | CCc1cc(-c2ccc(CNC(=O)Cc3ccccc3)o2)c(C)[nH]c1=O [Example 270, N-[5-(5-Ethyl-2-methyl-6-oxo-1,6-dihydro-pyridin-3-yl)-furan-2-ylmethyl]-2-phenyl-acetamide] |
| 0.94 µM |  | CCc1cc(-c2cncc(C(=O)NCCc3ccc(OC)cc3)c2)c(C)[nH]c1=O [Example 239, 5′-Ethyl-2′-methyl-6′-oxo-1′,6′-dihydro-[3,3′]bipyridinyl-5-carboxylic acid [2-(4-methoxy-phenyl)-ethyl]-amide] |
| 0.86 µM |  | CCc1cc(-c2ccc(S(=O)(=O)NCc3ccc(S(C)(=O)=O)cc3)s2)c(C)[nH]c1=O [Example 122C, 5-(5-Ethyl-2-methyl-6-oxo-1,6-dihydro-pyridin-3-yl)-thiophene-2-sulfonic acid 4-methanesulfonyl-benzylamide] |
| 0.75 µM |  | CCc1cc(-c2cncc(C(=O)NCc3cccnc3)c2)c(C)[nH]c1=O [Example 222, 5′-Ethyl-2′-methyl-6′-oxo-1′,6′-dihydro-[3,3′]bipyridinyl-5-carboxylic acid (pyridin-3-ylmethyl)-amide] |
| 0.67 µM |  | CCc1cc(-c2ccc(S(=O)(=O)NCCc3ccccn3)s2)c(C)[nH]c1=O [Example 43A, 5-(5-Ethyl-2-methyl-6-oxo-1,6-dihydropyridin-3-yl)thiophene-2-sulfonic acid 2-(pyridin-2-yl)ethylamide] |
| 0.64 µM |  | CCc1cc(-c2cncc(C(=O)NCc3nccs3)c2)c(C)[nH]c1=O [Example 250, 5′-Ethyl-2′-methyl-6′-oxo-1′,6′-dihydro-[3,3′]bipyridinyl-5-carboxylic acid (thiazol-2-ylmethyl)-amide] |
| 0.49 µM |  | CCc1cc(-c2cncc(C(=O)NCC(O)c3ccccc3)c2)c(C)[nH]c1=O (stereo not shown) [Example 253, 5′-Ethyl-2′-methyl-6′-oxo-1′,6′-dihydro-[3,3′]bipyridinyl-5-carboxylic acid (2-hydroxy-2-phenyl-ethyl)-amide] |
| 0.44 µM |  | CCc1cc(-c2cncc(C(=O)NCCc3ccccc3)c2)c(C)[nH]c1=O [Example 236, 5′-Ethyl-2′-methyl-6′-oxo-1′,6′-dihydro-[3,3′]bipyridinyl-5-carboxylic acid phenethyl-amide] |
| 0.35 µM |  | CCc1cc(-c2cncc(C(=O)NCCc3ccncc3)c2)c(C)[nH]c1=O [Example 238, 5′-Ethyl-2′-methyl-6′-oxo-1′,6′-dihydro-[3,3′]bipyridinyl-5-carboxylic acid (2-pyridin-4-yl-ethyl)-amide] |
| 0.28 µM |  | CCc1cc(-c2cncc(C(=O)NCc3ccc(S(N)(=O)=O)cc3)c2)c(C)[nH]c1=O [Example 255, 5′-Ethyl-2′-methyl-6′-oxo-1′,6′-dihydro-[3,3′]bipyridinyl-5-carboxylic acid 4-sulfamoyl-benzylamide] |
| 0.18 µM |  | CCc1cc(-c2ccc(C=NOCCN3CCCC3)o2)c(C)[nH]c1=O [Example 199, 3-Ethyl-2-methyl-6-oxo-1,6-dihydropyridin-3-yl)furan-2-carbaldehyde O-(2-pyrrolidin-1-ylethyl)oxime hydrochloride] |
| 0.13 µM |  | CCc1cc(-c2cncc(C(=O)NCCc3ccc([N+](=O)[O-])cc3)c2)c(C)[nH]c1=O [Example 230, 5′-Ethyl-2′-methyl-6′-oxo-1′,6′-dihydro-[3,3′]bipyridinyl-5-carboxylic acid [2-(4-nitro-phenyl)-ethyl]-amide] |
